Format in all cases: cell-based, human
Experiment [1] relates to DNA synthesis in HL-60 cells. In words: Inhibition of [3H-methyl]dThd incorporation into DNA of HL-60 cells. Conditions: for inhibition at 30 µg/mL: Homo sapiens, HL-60, at 0.03 mg/mL, read-out: % Inhibition of Precursor Incorporation, DNA; for inhibition of DNA synthesis, in words: HL-60, 0.03 mg/ml; for % Inhibition of Precursor Incorporation, DNA: at 0.03 mg/mL. The protocol: (§1) For the precursor incorporation studies, each compound (in 0.3% dimethylsulfoxide) was preincubated with HL-60 cells (a human promyelocytic leukemic cell line) 2.2×10^6 /ml, for 15 min prior to the addition of the labeled precursor (obtained from ICN Radiochemicals, Irvine, Calif.) and then incubated for 30 min. The precursors used for incorporation into DNA, RNA and protein were [^3 H-methyl]dThd (1 μCi, 0.15 nmole/ml), [5-^3 H]Cyd (5 μCi, 0.23 nmol/ml), and [2,3,4,5-^3 H]L-Leu (0.5 μCi, 0.004 nmol/ml), respectively. Incorporation of radioactivity in the absence of a plant compound and in the presence of dimethylsulfoxide was used as a control.
Human promyelocytic cells (HL-60) were incubated with [^3 H-methyl]dTHDin the presence and absence of a plant alkaloid.

For experiment [2], the system named is HL-60 cells. In words: HL-60 cell growth inhibition, 72 h. Conditions: HL-60, 72 h; for IC50: read-out: Cell Growth Inhibition, IC50. The protocol:
For growth inhibition studies, HL-60 cells (1.5×10^5 /ml) were grown in RPMI 1640 media (GIBCO, Grand Island, N.Y.) at 37° C. in humidified 5% CO2 for 72 h. Viable cells were determined using trypan blue exclusion and counted in a hemocytometer. The fractional inhibition for each compound concentration (0.0025-0.05 mg/ml in 0.1% dimethylsulfoxide) was analyzed with the median-effect plot using a computer program (Chou, T. -C and P. Talalay, Adv. Enzyme Regul., 22:27-55 (1984); Chou, J. and T. -C. thou, Dose-Effect analysis with microcomputers: Quantitation of ED50, LD50, synergism, antagonism, low-dose risk, receptor ligand binding and enzyme kinetics. A computer software disk for Apple II series or IBM-PC and manual. Elsevier Science Publishers, Elsevier-BioSoft, Cambridge, United Kingdom (1986)). The median-effect concentration (IC50) was determined automatically for three to five dose-effect levels. Cell growth in the absence of plant compound and in the presence of dimethylsulfoxide was used as a control. Dimethylsulfoxide alone inhibited cell growth 3.9%±1.5% during the 72 h incubation period. Those data with negative values represent activations.

The subject of experiment [3] is protein synthesis in HL-60 cells. In words: Inhibition of [2,3,4,5-3H]L-Leu incorporation into protein of HL-60 cells. The conditions noted are these: Homo sapiens. The protocol: as §1, with “control. The control values for incorporation into DNA, RNA and protein were 8,500, 5,600 and 1,700 cpm/10^6 cells, respectively. The incubation conditions and the procedures for isolating DNA, RNA and protein fractions have been previously described (Chou, T. -C., et al., Cancer Res., 43:3074-3079 (1983)) .” for “control.”
(§2) HL-60 cells were incubated with [5-^3 H]Cyd or [2,3,4,5-^3 H]L-Leu in the presence and absence of alkaloids (0.03 mg/ml) in order to find the effects of the alkaloid on the incorporation of labeled precursors into RNA or protein. […] Over 90% of RNA and protein biosynthesis were inhibited by compounds 11, 16, 17, 22, 28, 29and 30 (Table 1). […] In most cases, the amount required to inhibit precursor incorporation into DNA was less than that to inhibit precursor incorporation into RNA or protein (i.e. DNA synthesis is inhibited most potently).

Experiment [4] relates to RNA synthesis in HL-60 cells. In words: Inhibition of [5-3H]Cyd incorporation into RNA of HL-60 cells. The conditions noted are these: Homo sapiens, HL-60, 0.5 h. The protocol:
as §1, with “control. The control values for incorporation into DNA, RNA and protein were 8,500, 5,600 and 1,700 cpm/10^6 cells, respectively. The incubation conditions and the procedures for isolating DNA, RNA and protein fractions have been previously described (Chou, T. -C., et al., Cancer Res., 43:3074-3079 (1983)) .” for “control.”
as §2

Where [5] appears, read: HL-60, at 0.03 mg/mL, read-out: % Inhibition of Precursor Incorporation, Protein.
Where [6] appears, read: at 0.03 mg/mL, read-out: % Inhibition of Precursor Incorporation, RNA.
[7] abbreviates: HL-60, read-out: % Inhibition of Precursor Incorporation, Protein, at 0.03 mg/mL.
Setting [8] is: read-out: % Inhibition of Precursor Incorporation, RNA, at 0.03 mg/mL.

As a reminder, the IC50 is the concentration at which inhibition is half-maximal.

Where “and” joins values, the source holds several entries; their conditions need not be identical. Equal values may be shown once. Read-outs that look alike come from different tables or passages of the source.

With `COc1cc(O)c2c(=O)c3ccc(OC)c(OC)c3n(C)c2c1`, the figures for the inhibition at 30 µg/mL in experiment [1], in experiment [3] (setting [5]) and in experiment [4] (setting [6]) were 34.8%, 28.3% and 95%, respectively. Further, the IC50 in experiment [2] (Homo sapiens) was > 40 µg/mL and > 127 µM.

For the compound `O=c1c2ccccc2[nH]c2cc(O)cc(O)c12` [Compound 4, 1,3-Dihydroxy-acridone], the “inhibition of DNA synthesis, in words” value in experiment [1] is listed as “no significant activity”. Further, the inhibition at 30 µg/mL stood at 76.7% in experiment [1], 62.8% in experiment [3] (setting [5]) and 50.6% in experiment [4] (setting [6]). Also, the IC50 in experiment [2] (Homo sapiens) is 20.6 µg/mL and 90.7 µM.

Turning to `CC(=O)Oc1cc(OC(C)=O)c2c(=O)c3ccccc3[nH]c2c1` [Compound 5, 1,3-O,O-Diacetyl-acridone], the “inhibition of DNA synthesis, in words” value in experiment [1] was “no significant activity”. For the same compound, the inhibition at 30 µg/mL in experiment [1] was 39.7%; in experiment [3] (setting [5]) it was 26.9%; in experiment [4] (setting [6]), 24.9%. In addition, the 50% inhibitory concentration (IC50) in experiment [2] (Homo sapiens) was > 40 µg/mL and > 129 µM.

For `CC(=O)Oc1cc(OC(C)=O)c2c(=O)c3ccccc3n(C)c2c1` [Compound 6], the inhibition at 30 µg/mL is 23% in experiment [1], -12.8% in experiment [3] (setting [5]) and 2.7% in experiment [4] (setting [6]). Also, the IC50 in experiment [2] (Homo sapiens) was > 40 µg/mL and > 123 µM.

For the compound `COc1cc(O)c2c(=O)c3ccccc3n(C)c2c1` [Compound 7, 1-Hydroxy-3-methoxy N-methyl acridone], the inhibition at 30 µg/mL in experiment [1] was 48.4%; in experiment [3] (setting [5]) it was 25.2%; in experiment [4] (setting [6]), 39.5%. For the same compound, the IC50 in experiment [2] (Homo sapiens) is > 40 µg/mL and > 157 µM.

On to `COc1cc(O)cc2c1c(=O)c1ccccc1n2C` [Compound 8, 1-Methoxy-3-Hydroxy N-methyl acridone], for which the values for the inhibition at 30 µg/mL in experiment [1], in experiment [3] (setting [5]) and in experiment [4] (setting [6]) were 53.3%, 25.7% and 51.2%, respectively. In addition, the IC50 in experiment [2] (Homo sapiens) is > 40 µg/mL and > 157 µM.

In the case of `COc1cc(OC(C)=O)cc2c1c(=O)c1ccccc1n2C` [Compound 9, 3-O-Acetyl-1-methoxy-R-methyl acridone], the inhibition at 30 µg/mL was 71.1% in experiment [1], 30% in experiment [3] (setting [5]) and 61.6% in experiment [4] (setting [6]). In experiment [2] (Homo sapiens), the IC50 was 30.5 µg/mL and 103 µM.

Take `COc1cc(OC)c2c(=O)c3ccccc3n(C)c2c1` [Compound 10, 1,3-Dimethoxy-N-methyl acridone]: the “inhibition of DNA synthesis, in words” value in experiment [1] was “excellent inhibitory effect”. Also, the inhibition at 30 µg/mL in experiment [1] was > 90%; in experiment [3] (setting [5]) it was 64.4%; in experiment [4] (setting [6]), 65.8%. Besides, in experiment [2] (Homo sapiens), the IC50 is 9.2 µg/mL and 34.2 µM.

With `CC(C)=CCc1c(O)cc(O)c2c(=O)c3ccccc3n(C)c12` [Compound 11, Glycocitrine-II], the “inhibition of DNA synthesis, in words” value in experiment [1] is “potent inhibitor”. Further, the figures for the inhibition at 30 µg/mL in experiment [1], in experiment [3] (setting [5]) and in experiment [4] (setting [6]) were 99.5%, 95.3% and 97.1%, respectively. The IC50 in experiment [2] (Homo sapiens) was 8.2 µg/mL and 26.5 µM.

For `COc1cc(O)c2c(=O)c3ccccc3n(C)c2c1CC=C(C)C` [Compound 12, 3-O-methyl-glycocitrine-II], the “inhibition of DNA synthesis, in words” value in experiment [1] is listed as “only moderate inhibitory activity”. Also, the figures for the inhibition at 30 µg/mL in experiment [1], in experiment [3] (setting [5]) and in experiment [4] (setting [6]) were 61.8%, 50.3% and 53.8%, respectively. Moreover, the IC50 in experiment [2] (Homo sapiens) is > 40 µg/mL and > 124 µM.

As to `COc1cc(O)c2c(=O)c3cccc(O)c3n(C)c2c1CC=C(C)C` [Compound 13, Glycocitrine-I], the inhibition at 30 µg/mL in experiment [1] amounted to 97.5%; in experiment [3] (setting [5]) it was 41.1%; in experiment [4] (setting [6]) it was 43.9%. Also, the “cell growth inhibition, in words” value in experiment [2] is on record as “significant activity against leukemic cells in vitro”. Also, the IC50 in experiment [2] (Homo sapiens) is 1.4 µg/mL and 4.1 µM.

Consider `COc1cc(OC(C)=O)c2c(=O)c3cccc(OC(C)=O)c3n(C)c2c1CC=C(C)C` [Compound 14, OO-Diacetyl-glycocitrine-I], for which the inhibition at 30 µg/mL turned out to be 94.7% in experiment [1], 89.8% in experiment [3] (setting [5]) and 63.8% in experiment [4] (setting [6]). The “cell growth inhibition, in words” value in experiment [2] is given as “significant activity against leukemic cells in vitro”. Besides, in experiment [2] (Homo sapiens), the IC50 was 5.6 µg/mL and 13.2 µM.

On to `COc1c(O)cc(O)c2c(=O)c3cccc(O)c3n(C)c12` [Compound 15, Citrusinine-II], for which the inhibition at 30 µg/mL stood at 88.5% in experiment [1], 54.3% in experiment [3] (setting [7]) and 91.7% in experiment [4] (setting [8]). For the same compound, the IC50 in experiment [2] (Homo sapiens) is 17 µg/mL and 59.2 µM.

For `COc1cc(O)c2c(=O)c3cccc(O)c3n(C)c2c1OC` [Compound 16, Citrusinine-I], the inhibition at 30 µg/mL in experiment [1] turned out to be 97%; in experiment [3] (setting [7]), 87%; in experiment [4] (setting [8]), 96.5%. The “cell growth inhibition, in words” value in experiment [2] was “significant activity against leukemic cells in vitro”. In experiment [2] (Homo sapiens), the IC50 is 2.6 µg/mL and 8.6 µM.

In the case of `COc1cc(OC)c2c(=O)c3cccc(OC)c3n(C)c2c1OC` [Compound 18, 1,3,4,5-Tetra-methoxy-N-methyl acridone], the inhibition at 30 µg/mL in experiment [1] is 91.5%; in experiment [3] (setting [5]), 71.8%; in experiment [4] (setting [6]), 57%. Also, in experiment [2] (Homo sapiens), the IC50 was 13.3 µg/mL and 40.4 µM.

With `COc1ccc2c(=O)c3c(O)cc(O)cc3n(C)c2c1OC` [Compound 19, Grandisine-II], the inhibition at 30 µg/mL was found to be 76.5% in experiment [1], 27.3% in experiment [3] (setting [5]) and 96% in experiment [4] (setting [6]). Further, the IC50 in experiment [2] (Homo sapiens) was > 40 µg/mL and > 133 µM.

On to `COc1ccc2c(=O)c3c(O)cc(OC(C)=O)cc3n(C)c2c1OC` [Compound 20, O-Acetyl-grandisine-II], for which the inhibition at 30 µg/mL was 24.4% in experiment [1], -5.6% in experiment [3] (setting [5]) and 77% in experiment [4] (setting [6]). Further, the IC50 in experiment [2] (Homo sapiens) was 38.7 µg/mL and 113 µM.

For the compound `COc1cc(O)c2c(=O)c3ccc(OC)c(O)c3n(C)c2c1` [Compound 21, Grandisine-I], the inhibition at 30 µg/mL in experiment [1] stood at 71.7%; in experiment [3] (setting [5]), 22.8%; in experiment [4] (setting [6]), 69.5%. Further, the IC50 in experiment [2] (Homo sapiens) was > 40 µg/mL and > 133 µM.

Turning to `COc1cc(O)c2c(=O)c3ccc(O)c(OC)c3n(C)c2c1` [Compound 22, Citpressine-I], the “% Inhibition of Precursor Incorporation, DNA” value in experiment [1] was 65.0%. In experiment [2], the “Cell Growth Inhibition, IC50” value is > 40 µg/mL and the IC50 is > 133 µM.

Regarding `COc1cc(OC)c2c(=O)c3ccc(OC)c(OC)c3n(C)c2c1` [Compound 24, 1-O-Methyl-citpressine-II], the inhibition at 30 µg/mL in experiment [1] amounted to 93.1%; in experiment [3] (setting [5]) it was 75.6%; in experiment [4] (setting [6]) it was 67.3%. The “% Inhibition of Precursor Incorporation, DNA” value in experiment [1] was 93%. Moreover, the IC50 in experiment [2] (Homo sapiens) was 22 µg/mL and 66.8 µM.

For `COc1c(O)ccc2c(=O)c3c(O)c(CC=C(C)C)c(O)cc3n(C)c12` [Compound 25, Buntanine], the inhibition at 30 µg/mL in experiment [1] worked out at 96.6%; in experiment [3] (setting [5]), 40.1%; in experiment [4] (setting [6]), 29.8%. Moreover, the half-inhibitory concentration (IC50) in experiment [2] (Homo sapiens) is 3.6 µg/mL and 10.1 µM.

The values above are taken from patent publication US5340818A, “Methods and compositions for inhibiting tumor cell growth” (priority 1993, dated 1994).
